Oligonucleotides are given in HELM: sugar(base)linkage, 5' to 3'; d 2'-deoxyribose, r ribose, m 2'-O-methylribose, p phosphate. ss, as = sense and antisense strand
Biological target: UBE2K
Test: reporter assay of Huesken 2005
Details: siRNA
Further: test concentration or dose not given here.

Substance	normalised inhibition (eCFP-eYFP dual reporter)
RNA1{r(U)p.r(G)p.r(A)p.r(A)p.r(A)p.r(G)p.r(A)p.r(U)p.r(C)p.r(A)p.r(A)p.r(U)p.r(G)p.r(G)p.r(G)p.r(C)p.r(A)p.r(G)p.r(C)p.d(T)p.d(T)}|RNA2{r(G)p.r(C)p.r(U)p.r(G)p.r(C)p.r(C)p.r(C)p.r(A)p.r(U)p.r(U)p.r(G)p.r(A)p.r(U)p.r(C)p.r(U)p.r(U)p.r(U)p.r(C)p.r(A)p.d(G)p.d(G)}$$$RNA1{StrandType:ss}|RNA2{StrandType:as}$	57.3%
RNA1{r(G)p.r(G)p.r(G)p.r(G)p.r(C)p.r(U)p.r(A)p.r(U)p.r(U)p.r(U)p.r(G)p.r(U)p.r(U)p.r(U)p.r(G)p.r(G)p.r(A)p.r(U)p.r(A)p.d(T)p.d(T)}|RNA2{r(U)p.r(A)p.r(U)p.r(C)p.r(C)p.r(A)p.r(A)p.r(A)p.r(C)p.r(A)p.r(A)p.r(A)p.r(U)p.r(A)p.r(G)p.r(C)p.r(C)p.r(C)p.r(C)p.d(T)p.d(G)}$$$RNA1{StrandType:ss}|RNA2{StrandType:as}$	81.2%
RNA1{r(A)p.r(A)p.r(G)p.r(G)p.r(A)p.r(G)p.r(G)p.r(A)p.r(A)p.r(G)p.r(A)p.r(U)p.r(A)p.r(C)p.r(C)p.r(A)p.r(A)p.r(C)p.r(U)p.d(T)p.d(T)}|RNA2{r(A)p.r(G)p.r(U)p.r(U)p.r(G)p.r(G)p.r(U)p.r(A)p.r(U)p.r(C)p.r(U)p.r(U)p.r(C)p.r(C)p.r(U)p.r(C)p.r(C)p.r(U)p.r(U)p.d(C)p.d(A)}$$$RNA1{StrandType:ss}|RNA2{StrandType:as}$	68.1%
RNA1{r(A)p.r(G)p.r(C)p.r(A)p.r(A)p.r(A)p.r(U)p.r(C)p.r(A)p.r(G)p.r(U)p.r(A)p.r(C)p.r(A)p.r(A)p.r(A)p.r(C)p.r(A)p.r(A)p.d(T)p.d(T)}|RNA2{r(U)p.r(U)p.r(G)p.r(U)p.r(U)p.r(U)p.r(G)p.r(U)p.r(A)p.r(C)p.r(U)p.r(G)p.r(A)p.r(U)p.r(U)p.r(U)p.r(G)p.r(C)p.r(U)p.d(A)p.d(C)}$$$RNA1{StrandType:ss}|RNA2{StrandType:as}$	77.8%
RNA1{r(U)p.r(U)p.r(C)p.r(C)p.r(G)p.r(U)p.r(C)p.r(A)p.r(C)p.r(A)p.r(G)p.r(G)p.r(G)p.r(G)p.r(C)p.r(U)p.r(A)p.r(U)p.r(U)p.d(T)p.d(T)}|RNA2{r(A)p.r(A)p.r(U)p.r(A)p.r(G)p.r(C)p.r(C)p.r(C)p.r(C)p.r(U)p.r(G)p.r(U)p.r(G)p.r(A)p.r(C)p.r(G)p.r(G)p.r(A)p.r(A)p.d(C)p.d(T)}$$$RNA1{StrandType:ss}|RNA2{StrandType:as}$	55.5%
RNA1{r(G)p.r(C)p.r(U)p.r(G)p.r(C)p.r(A)p.r(A)p.r(U)p.r(G)p.r(A)p.r(C)p.r(U)p.r(C)p.r(U)p.r(C)p.r(C)p.r(G)p.r(C)p.r(A)p.d(T)p.d(T)}|RNA2{r(U)p.r(G)p.r(C)p.r(G)p.r(G)p.r(A)p.r(G)p.r(A)p.r(G)p.r(U)p.r(C)p.r(A)p.r(U)p.r(U)p.r(G)p.r(C)p.r(A)p.r(G)p.r(C)p.d(T)p.d(G)}$$$RNA1{StrandType:ss}|RNA2{StrandType:as}$	87.1%
RNA1{r(U)p.r(C)p.r(C)p.r(G)p.r(G)p.r(U)p.r(U)p.r(U)p.r(A)p.r(U)p.r(C)p.r(A)p.r(C)p.r(U)p.r(A)p.r(A)p.r(A)p.r(A)p.r(U)p.d(T)p.d(T)}|RNA2{r(A)p.r(U)p.r(U)p.r(U)p.r(U)p.r(A)p.r(G)p.r(U)p.r(G)p.r(A)p.r(U)p.r(A)p.r(A)p.r(A)p.r(C)p.r(C)p.r(G)p.r(G)p.r(A)p.d(C)p.d(C)}$$$RNA1{StrandType:ss}|RNA2{StrandType:as}$	73%
RNA1{r(G)p.r(C)p.r(C)p.r(A)p.r(G)p.r(A)p.r(U)p.r(G)p.r(A)p.r(U)p.r(C)p.r(C)p.r(A)p.r(C)p.r(A)p.r(G)p.r(G)p.r(A)p.r(U)p.d(T)p.d(T)}|RNA2{r(A)p.r(U)p.r(C)p.r(C)p.r(U)p.r(G)p.r(U)p.r(G)p.r(G)p.r(A)p.r(U)p.r(C)p.r(A)p.r(U)p.r(C)p.r(U)p.r(G)p.r(G)p.r(C)p.d(T)p.d(C)}$$$RNA1{StrandType:ss}|RNA2{StrandType:as}$	74.9%
RNA1{r(G)p.r(U)p.r(A)p.r(G)p.r(U)p.r(A)p.r(G)p.r(C)p.r(A)p.r(A)p.r(A)p.r(U)p.r(C)p.r(A)p.r(G)p.r(U)p.r(A)p.r(C)p.r(A)p.d(T)p.d(T)}|RNA2{r(U)p.r(G)p.r(U)p.r(A)p.r(C)p.r(U)p.r(G)p.r(A)p.r(U)p.r(U)p.r(U)p.r(G)p.r(C)p.r(U)p.r(A)p.r(C)p.r(U)p.r(A)p.r(C)p.d(A)p.d(G)}$$$RNA1{StrandType:ss}|RNA2{StrandType:as}$	92.1%
RNA1{r(G)p.r(A)p.r(U)p.r(C)p.r(C)p.r(A)p.r(C)p.r(A)p.r(G)p.r(G)p.r(A)p.r(U)p.r(G)p.r(C)p.r(U)p.r(G)p.r(U)p.r(A)p.r(G)p.d(T)p.d(T)}|RNA2{r(C)p.r(U)p.r(A)p.r(C)p.r(A)p.r(G)p.r(C)p.r(A)p.r(U)p.r(C)p.r(C)p.r(U)p.r(G)p.r(U)p.r(G)p.r(G)p.r(A)p.r(U)p.r(C)p.d(A)p.d(T)}$$$RNA1{StrandType:ss}|RNA2{StrandType:as}$	67.6%
RNA1{r(G)p.r(C)p.r(A)p.r(G)p.r(C)p.r(U)p.r(G)p.r(C)p.r(A)p.r(A)p.r(U)p.r(G)p.r(A)p.r(C)p.r(U)p.r(C)p.r(U)p.r(C)p.r(C)p.d(T)p.d(T)}|RNA2{r(G)p.r(G)p.r(A)p.r(G)p.r(A)p.r(G)p.r(U)p.r(C)p.r(A)p.r(U)p.r(U)p.r(G)p.r(C)p.r(A)p.r(G)p.r(C)p.r(U)p.r(G)p.r(C)p.d(C)p.d(C)}$$$RNA1{StrandType:ss}|RNA2{StrandType:as}$	47.4%
RNA1{r(G)p.r(C)p.r(U)p.r(G)p.r(U)p.r(A)p.r(G)p.r(U)p.r(A)p.r(G)p.r(C)p.r(A)p.r(A)p.r(A)p.r(U)p.r(C)p.r(A)p.r(G)p.r(U)p.d(T)p.d(T)}|RNA2{r(A)p.r(C)p.r(U)p.r(G)p.r(A)p.r(U)p.r(U)p.r(U)p.r(G)p.r(C)p.r(U)p.r(A)p.r(C)p.r(U)p.r(A)p.r(C)p.r(A)p.r(G)p.r(C)p.d(A)p.d(T)}$$$RNA1{StrandType:ss}|RNA2{StrandType:as}$	87.4%
RNA1{r(U)p.r(G)p.r(G)p.r(C)p.r(A)p.r(U)p.r(C)p.r(C)p.r(U)p.r(A)p.r(A)p.r(U)p.r(A)p.r(U)p.r(U)p.r(A)p.r(G)p.r(U)p.r(U)p.d(T)p.d(T)}|RNA2{r(A)p.r(A)p.r(C)p.r(U)p.r(A)p.r(A)p.r(U)p.r(A)p.r(U)p.r(U)p.r(A)p.r(G)p.r(G)p.r(A)p.r(U)p.r(G)p.r(C)p.r(C)p.r(A)p.d(T)p.d(A)}$$$RNA1{StrandType:ss}|RNA2{StrandType:as}$	61.6%
RNA1{r(A)p.r(A)p.r(A)p.r(A)p.r(U)p.r(A)p.r(U)p.r(G)p.r(G)p.r(C)p.r(A)p.r(U)p.r(C)p.r(C)p.r(U)p.r(A)p.r(A)p.r(U)p.r(A)p.d(T)p.d(T)}|RNA2{r(U)p.r(A)p.r(U)p.r(U)p.r(A)p.r(G)p.r(G)p.r(A)p.r(U)p.r(G)p.r(C)p.r(C)p.r(A)p.r(U)p.r(A)p.r(U)p.r(U)p.r(U)p.r(U)p.d(A)p.d(G)}$$$RNA1{StrandType:ss}|RNA2{StrandType:as}$	67.3%
RNA1{r(A)p.r(U)p.r(C)p.r(U)p.r(U)p.r(G)p.r(U)p.r(A)p.r(G)p.r(A)p.r(U)p.r(G)p.r(A)p.r(G)p.r(A)p.r(A)p.r(U)p.r(U)p.r(U)p.d(T)p.d(T)}|RNA2{r(A)p.r(A)p.r(A)p.r(U)p.r(U)p.r(C)p.r(U)p.r(C)p.r(A)p.r(U)p.r(C)p.r(U)p.r(A)p.r(C)p.r(A)p.r(A)p.r(G)p.r(A)p.r(U)p.d(C)p.d(T)}$$$RNA1{StrandType:ss}|RNA2{StrandType:as}$	81.3%
RNA1{r(C)p.r(A)p.r(G)p.r(G)p.r(A)p.r(U)p.r(G)p.r(C)p.r(U)p.r(G)p.r(U)p.r(A)p.r(G)p.r(U)p.r(A)p.r(G)p.r(C)p.r(A)p.r(A)p.d(T)p.d(T)}|RNA2{r(U)p.r(U)p.r(G)p.r(C)p.r(U)p.r(A)p.r(C)p.r(U)p.r(A)p.r(C)p.r(A)p.r(G)p.r(C)p.r(A)p.r(U)p.r(C)p.r(C)p.r(U)p.r(G)p.d(T)p.d(G)}$$$RNA1{StrandType:ss}|RNA2{StrandType:as}$	93%
RNA1{r(G)p.r(A)p.r(A)p.r(A)p.r(U)p.r(G)p.r(U)p.r(U)p.r(C)p.r(A)p.r(A)p.r(A)p.r(C)p.r(A)p.r(G)p.r(A)p.r(C)p.r(A)p.r(G)p.d(T)p.d(T)}|RNA2{r(C)p.r(U)p.r(G)p.r(U)p.r(C)p.r(U)p.r(G)p.r(U)p.r(U)p.r(U)p.r(G)p.r(A)p.r(A)p.r(C)p.r(A)p.r(U)p.r(U)p.r(U)p.r(C)p.d(G)p.d(G)}$$$RNA1{StrandType:ss}|RNA2{StrandType:as}$	76.6%
RNA1{r(A)p.r(U)p.r(U)p.r(G)p.r(U)p.r(C)p.r(A)p.r(U)p.r(U)p.r(G)p.r(C)p.r(A)p.r(A)p.r(G)p.r(C)p.r(A)p.r(C)p.r(U)p.r(A)p.d(T)p.d(T)}|RNA2{r(U)p.r(A)p.r(G)p.r(U)p.r(G)p.r(C)p.r(U)p.r(U)p.r(G)p.r(C)p.r(A)p.r(A)p.r(U)p.r(G)p.r(A)p.r(C)p.r(A)p.r(A)p.r(U)p.d(A)p.d(A)}$$$RNA1{StrandType:ss}|RNA2{StrandType:as}$	85.4%
RNA1{r(A)p.r(G)p.r(G)p.r(G)p.r(G)p.r(C)p.r(U)p.r(A)p.r(U)p.r(U)p.r(U)p.r(G)p.r(U)p.r(U)p.r(U)p.r(G)p.r(G)p.r(A)p.r(U)p.d(T)p.d(T)}|RNA2{r(A)p.r(U)p.r(C)p.r(C)p.r(A)p.r(A)p.r(A)p.r(C)p.r(A)p.r(A)p.r(A)p.r(U)p.r(A)p.r(G)p.r(C)p.r(C)p.r(C)p.r(C)p.r(U)p.d(G)p.d(T)}$$$RNA1{StrandType:ss}|RNA2{StrandType:as}$	71%
RNA1{r(A)p.r(G)p.r(A)p.r(C)p.r(A)p.r(C)p.r(A)p.r(C)p.r(C)p.r(A)p.r(U)p.r(A)p.r(U)p.r(G)p.r(A)p.r(A)p.r(G)p.r(G)p.r(A)p.d(T)p.d(T)}|RNA2{r(U)p.r(C)p.r(C)p.r(U)p.r(U)p.r(C)p.r(A)p.r(U)p.r(A)p.r(U)p.r(G)p.r(G)p.r(U)p.r(G)p.r(U)p.r(G)p.r(U)p.r(C)p.r(U)p.d(G)p.d(G)}$$$RNA1{StrandType:ss}|RNA2{StrandType:as}$	81%
